Data reported in patent US4363805A, “Aminodesoxy-1.4;3.6-dianhydrohexitol nitrates and pharmaceutical composition” (Firma Willmar Schwabe, priority 1980, dated 1982).

Legend:
[1] = test system: narcotised guinea pigs; test: Blood pressure experiments on guinea pigs, i.v.; format: in vivo, guinea pig; settings: for blood pressure before: before administration
[2] = test system: isolated guinea pig hearts; test: Experiments on Langendorff hearts (coronary flowthrough, inotropism, frequency); settings: Cavia porcellus, read-out: flowthrough, percentage change with regard to the initial value
Method: After reaching the stationary state in the 30th minute, the hearts were each perfused with 50 ml. tyrode solution with a content of test substance of, in each case, 25 μg./ml. Each test substance was tested on 3-6 hearts.
In each case, there was measured the inotropism, the flowthrough and the frequency, whereby the values given in Table I are average values of the percentage changes in comparison with the initial values.

[3] = Acute toxicity, intravenous, mice; format: in vivo; settings: mouse, in vivo; intravenous, within 24 hours; read-out: Evaluated LD50-range
[4] = test system: female NMRI-albino mice; test: Acute toxicity, intravenous, mice; format: in vivo; settings: within 24 hours

SMILES	blood pressure after ([1]; 0.25 mg/kg i.v.) [mm.Hg]	blood pressure Δ ([1]; 0.25 mg/kg i.v.) [mm.Hg]	blood pressure before ([1]; 0.25 mg/kg i.v.) [mm.Hg]	blood pressure after ([1]; 1.00 mg/kg i.v.) [mm.Hg]	blood pressure Δ ([1]; 1.00 mg/kg i.v.) [mm.Hg]	blood pressure after ([1]; 2.50 mg/kg i.v.) [mm.Hg]	blood pressure Δ ([1]; 2.50 mg/kg i.v.) [mm.Hg]	activation at 25 µg/mL [2] [%]	LD50 at 24 h [3] [mg/kg]	Frequency of death ([4]; 200 mg/kg i.v.)	Frequency of death ([4]; 100 mg/kg i.v.)	blood pressure-lowering effectiveness (in words) ([1]; i.v.)	Frequency of death ([4]; 50 mg/kg i.v.)
CCN[C@H]1CO[C@H]2[C@@H]1OC[C@@H]2O[N+](=O)[O-] [10 b]	37.25 ± 2.06	-6.00	43.25 ± 2.21	32.00 ± 2.04	-11.25	27.25 ± 1.60	-15.50	25.9	–	–	–	–	–
CN(C)[C@H]1CO[C@H]2[C@@H]1OC[C@@H]2O[N+](=O)[O-] [12 b]	–	–	–	–	–	–	–	16.2	> 200	0/3	–	–	–
CCN(CC)[C@H]1CO[C@H]2[C@@H]1OC[C@@H]2O[N+](=O)[O-] [13 b]	–	–	–	–	–	–	–	9.05	100 to 200	6/6	0/3	–	–
CC(C)(C)C(=O)N[C@H]1CO[C@H]2[C@@H]1OC[C@@H]2O[N+](=O)[O-] [Example 5, 5-Pivaloylamino-5-desoxy-1.4;3.6-dianhydro-L-iditol 2-nitrate]	54.00 ± 2.52	-10.50	64.50 ± 2.75	40.50 ± 3.66	-22.75	30.75 ± 8.60	-31.75	21.2	–	–	–	stronger action than ISDN	–
CN(Cc1ccccc1)[C@H]1CO[C@H]2[C@@H]1OC[C@@H]2O[N+](=O)[O-] [Example 19, 5-(N-Benzyl-N-methylamino)-5-desoxy-1.4;3.6-dianhydro-L-iditol 2-nitrate]	–	–	–	–	–	–	–	100	100 to 200	6/6	0/3	–	–
CN(CCCc1ccccc1)[C@H]1CO[C@H]2[C@@H]1OC[C@@H]2O[N+](=O)[O-] [Example 21, 5-[N-Methyl-N-(3-phenylpropyl)-amino]-5-desoxy-1.4;3.6-dianhydro-L-iditol 2-nitrate]	–	–	–	–	–	–	–	117	50 to 100	6/6	3/3	–	0/3
